In brackets after ≈: the same amount, converted by molar mass. Activity calls are given as the source filed them. The calls are words filed in the database; no cut-off is given here.
How the values were obtained:
[1] = tested on: Mycobacterium tuberculosis; test: Antituberculosis activity against Mycobacterium tuberculosis H37Rv ATCC 27294 after 2 weeks by microbroth dilution method; type: functional; conditions: H37Rv ATCC 27294, 336 h
[2] = tested on: Mycobacterium tuberculosis; test: Antituberculosis activity against Mycobacterium tuberculosis H37Rv ATCC 27294 in stationary phase culture at pH 5.8 up to 200 ug/ml after 3 days followed by washout from day 4 to week 4 by microbroth dilution method; type: functional, organism-based

| Structure (SMILES) | MIC [1] | Activity [2] |
| --- | --- | --- |
| OCCCCCCCCCCCCCCCCCCCCC1CCCCC1 | 100 µg/mL (≈ 263 µM) | inactive |
| OCCCCCCCCCCCCCCCCCCCCCCC1CCCCC1 | 100 µg/mL (≈ 245 µM) | inactive |
| CCCCCCCCCCCCCCCC(=O)O[C@H]1CC[C@]2(C)[C@H]3CC=C4[C@H]5CC(C)(C)CC[C@]5(C)CC[C@@]4(C)[C@]3(C)CC[C@H]2C1(C)C | 100 µg/mL (≈ 150 µM) | inactive |
| CC[C@H](/C=C/[C@@H](C)[C@H]1CC[C@H]2[C@@H]3CCC4=C[C@@H](O[C@@H]5O[C@H](CO)[C@@H](O)[C@H](O)[C@H]5O)CC[C@]4(C)[C@H]3CC[C@]12C)C(C)C | 100 µg/mL (≈ 174 µM) | inactive |
| CC[C@H](/C=C/[C@@H](C)[C@H]1CC[C@H]2[C@@H]3CCC4=C[C@@H](O[C@@H]5O[C@@H](C)[C@H](O)[C@@H](O)[C@H]5O)CC[C@]4(C)[C@H]3CC[C@]12C)C(C)C | 50 µg/mL (≈ 89.5 µM) | inactive |
| CCC(CC[C@@H](C)[C@H]1CC[C@H]2[C@@H]3CC=C4C=CCC[C@]4(C)[C@H]3CC[C@]12C)C(C)C (some centres not stated) | 100 µg/mL (≈ 252 µM) | inactive |
| C[C@H]1[C@H](C)CC[C@]2(C)CC[C@]3(C)C(=CC[C@@H]4[C@@]5(C)CCC[C@H](C)[C@@H]5CC[C@]43C)[C@H]12 | 100 µg/mL (≈ 252 µM) | inactive |
| CCCCC(O)CCCCCCCCCCCCCCCCCCCC(=O)CCC (configuration not stated) | 100 µg/mL (≈ 235 µM) | inactive |
| CC(C)[C@@H](C)/C=C/[C@@H](C)[C@H]1CC[C@@H]2[C@]1(C)CC=C1[C@]23C=C[C@]2(C[C@@H](O)CC[C@]12C)OO3 | 100 µg/mL (≈ 234 µM) | inactive |
| COc1c(O)cc2ccc(=O)oc2c1OC | 100 µg/mL (≈ 450 µM) | inactive |
| CC(C)[C@@H](C)/C=C/[C@@H](C)[C@H]1CC[C@@H]2[C@]1(C)CC[C@H]1[C@]23C=C[C@]2(C[C@@H](O)CC[C@]12C)OO3 [ERGOSTEROL PEROXIDE] | 100 µg/mL (≈ 233 µM) | inactive |
| O=C(/C=C\C=C/CCCCCCCCCCCCCCCCCO)N1CCCCC1 [HALOXYLINE A] | 100 µg/mL (≈ 238 µM) | inactive |
| O=C(/C=C\C=C/CCCCCCCCCCCCCCCCCO)N1CCC[C@@H](O)C1 [HALOXYLINE B] | 50 µg/mL (≈ 115 µM) | inactive |
| NNC(=O)c1ccncc1 [ISONIAZID] | 0.02 µg/mL (≈ 0.146 µM) | inactive |
| C=C(C)[C@@H]1CC[C@]2(C)CC[C@]3(C)[C@H](CC[C@@H]4[C@@]5(C)CC[C@H](OC(C)=O)C(C)(C)[C@@H]5CC[C@]43C)[C@@H]12 [LUPENYL ACETATE] | 100 µg/mL | inactive |
| C=C(C)[C@@H]1CC[C@]2(C)CC[C@]3(C)[C@H](CC[C@@H]4[C@@]5(C)CC[C@H](O)C(C)(C)[C@@H]5CC[C@]43C)[C@@H]12 [LUPEOL] | 100 µg/mL (≈ 234 µM) | inactive |
| CC[C@H](/C=C/[C@@H](C)[C@H]1CC[C@H]2[C@@H]3CC=C4C[C@@H](O[C@@H]5O[C@H](CO)[C@@H](O)[C@H](O)[C@H]5O)CC[C@]4(C)[C@H]3CC[C@]12C)C(C)C [STIGMASTEROL GLUCOSIDE] | 50 µg/mL (≈ 87 µM) | inactive |
| CC[C@H](/C=C/[C@@H](C)[C@H]1CC[C@H]2[C@@H]3CC=C4C[C@@H](O)CC[C@]4(C)[C@H]3CC[C@]12C)C(C)C [STIGMASTEROL] | 100 µg/mL (≈ 242 µM) | inactive |
| C[C@H]1[C@H](C)CC[C@]2(C(=O)O)CC[C@]3(C)C(=CC[C@@H]4[C@@]5(C)CC[C@H](O)C(C)(C)[C@@H]5CC[C@]43C)[C@H]12 [URSOLIC ACID] | 100 µg/mL (≈ 219 µM) | inactive |
| CC(=O)O[C@H]1CC[C@]2(C)[C@H]3CC=C4[C@@H]5CC(C)(C)CC[C@]5(C)CC[C@@]4(C)[C@]3(C)CC[C@H]2C1(C)C [beta-AMYRIN ACETATE] | 100 µg/mL | inactive |
| CC1(C)CC[C@]2(C)CC[C@]3(C)C(=CC[C@@H]4[C@@]5(C)CC[C@H](O)C(C)(C)[C@@H]5CC[C@]43C)[C@@H]2C1 [beta-AMYRIN] | 100 µg/mL (≈ 234 µM) | inactive |

From ChEMBL document CHEMBL1177803, “In vitro antituberculosis activities of the constituents isolated from Haloxylon salicornicum” (2010)
